Reference: patent US8802895B2, “Amide derivatives of benzene-sulfonanilide, pharmaceutical composition thereof and method for cancer treatment using the same” (Cleveland State University, priority 2010, dated 2014)

Assays:
Assay type in all cases: cell-based
NCI-H23 = test: NCIDTP 60 cancer cell lines screening, Non-Small Cell Lung Cancer panel
COLO 205 = test: NCIDTP 60 cancer cell lines screening, Colon Cancer panel
SNB-75 = test: NCIDTP 60 cancer cell lines screening, CNS Cancer panel
EKVX = test: NCIDTP 60 cancer cell lines screening, Non-Small Cell Lung Cancer panel
T-47D = test: NCIDTP 60 cancer cell lines screening, Breast Cancer panel
A498 = test: NCIDTP 60 cancer cell lines screening, Renal Cancer panel
CCRF-CEM = test: NCIDTP 60 cancer cell lines screening, Leukemia panel
SK-MEL-2 = test: NCIDTP 60 cancer cell lines screening, Melanoma panel
HCT-116 = test: NCIDTP 60 cancer cell lines screening, Colon Cancer panel
HS 578T = test: NCIDTP 60 cancer cell lines screening, Breast Cancer panel
U251 = test: NCIDTP 60 cancer cell lines screening, CNS Cancer panel
MCF7 = test: NCIDTP 60 cancer cell lines screening, Breast Cancer panel
NCI-H460 = test: NCIDTP 60 cancer cell lines screening, Non-Small Cell Lung Cancer panel
OVCAR-5 = test: NCIDTP 60 cancer cell lines screening, Ovarian Cancer panel
MALME-3M = test: NCIDTP 60 cancer cell lines screening, Melanoma panel
K-562 = test: NCIDTP 60 cancer cell lines screening, Leukemia panel
NCI/ADR-RES = test: NCIDTP 60 cancer cell lines screening, Ovarian Cancer panel

Cc1ccc(C)c(COc2cc(NC(=O)c3ccc4c(c3)OCO4)ccc2N(C)S(C)(=O)=O)c1 [Compound #10, Benzo[1,3]dioxole-5-carboxylic acid [3-(2,5-dimethyl-benzyloxy)-4-(methanesulfonyl-methyl-amino)-phenyl]-amide]
GI50 (NCI-H23; Homo sapiens, NCI-H23): 0.162 µM | CC50 (NCI-H23; Homo sapiens, NCI-H23, read-out: LC50): > 100 µM | TGI (NCI-H23; NCI-H23): >1.00E−4 Molar | Percent Growth (NCI-H23; NCI-H23, Log10 Concentration −4.0 Molar): 2% | Percent Growth (NCI-H23; NCI-H23, Log10 Concentration −5.0 Molar): 3% | Percent Growth (NCI-H23; NCI-H23, Log10 Concentration −6.0 Molar): 5% | Percent Growth (NCI-H23; NCI-H23, Log10 Concentration −7.0 Molar): 62% | Percent Growth (NCI-H23; NCI-H23, Log10 Concentration −8.0 Molar): 97% | TGI (COLO 205; COLO 205): 1.07E−6 Molar | Percent Growth (COLO 205; COLO 205, Log10 Concentration −4.0 Molar): −33% | Percent Growth (COLO 205; COLO 205, Log10 Concentration −5.0 Molar): −41% | Percent Growth (COLO 205; COLO 205, Log10 Concentration −6.0 Molar): 1% | Percent Growth (COLO 205; COLO 205, Log10 Concentration −7.0 Molar): 99% | Percent Growth (COLO 205; COLO 205, Log10 Concentration −8.0 Molar): 105% | GI50 (COLO 205; Homo sapiens, COLO 205): 0.318 µM | CC50 (COLO 205; Homo sapiens, COLO 205, read-out: LC50): > 100 µM | GI50 (SNB-75; Homo sapiens, SNB-75): 0.266 µM | CC50 (SNB-75; Homo sapiens, SNB-75, read-out: LC50): > 100 µM | Percent Growth (SNB-75; SNB-75, Log10 Concentration −4.0 Molar): 3% | Percent Growth (SNB-75; SNB-75, Log10 Concentration −5.0 Molar): −6% | Percent Growth (SNB-75; SNB-75, Log10 Concentration −6.0 Molar): −5% | Percent Growth (SNB-75; SNB-75, Log10 Concentration −7.0 Molar): 91% | Percent Growth (SNB-75; SNB-75, Log10 Concentration −8.0 Molar): 86% | TGI (EKVX): >1.00E−4 Molar | GI50 (EKVX; Homo sapiens): 0.598 µM | CC50 (EKVX; Homo sapiens, read-out: LC50): > 100 µM | Percent Growth (EKVX; Log10 Concentration −4.0 Molar): 33% | Percent Growth (EKVX; Log10 Concentration −5.0 Molar): 25% | Percent Growth (EKVX; Log10 Concentration −6.0 Molar): 39% | Percent Growth (EKVX; Log10 Concentration −7.0 Molar): 88% | Percent Growth (EKVX; Log10 Concentration −8.0 Molar): 94% | CC50 (T-47D; Homo sapiens, T47D, read-out: LC50): > 100 µM | GI50 (T-47D; Homo sapiens, T47D, T-47D): 0.682 µM | TGI (T-47D; T-47D): >1.00E−4 Molar | Percent Growth (T-47D; T-47D, Log10 Concentration −4.0 Molar): 27% | Percent Growth (T-47D; T-47D, Log10 Concentration −5.0 Molar): 29% | Percent Growth (T-47D; T-47D, Log10 Concentration −6.0 Molar): 45% | Percent Growth (T-47D; T-47D, Log10 Concentration −7.0 Molar): 77% | Percent Growth (T-47D; T-47D, Log10 Concentration −8.0 Molar): 89% | TGI (A498; A498): 8.53E−7 Molar | Percent Growth (A498; A498, Log10 Concentration −4.0 Molar): −5% | Percent Growth (A498; A498, Log10 Concentration −5.0 Molar): −7% | Percent Growth (A498; A498, Log10 Concentration −6.0 Molar): −4% | Percent Growth (A498; A498, Log10 Concentration −7.0 Molar): 55% | Percent Growth (A498; A498, Log10 Concentration −8.0 Molar): 86% | GI50 (A498; Homo sapiens, A498): 0.122 µM | CC50 (A498; Homo sapiens, A498, read-out: LC50): > 100 µM | TGI (CCRF-CEM): >1.00E−4 Molar | GI50 (CCRF-CEM; Homo sapiens): 0.0485 µM | CC50 (CCRF-CEM; Homo sapiens, read-out: LC50): > 100 µM | Percent Growth (CCRF-CEM; Log10 Concentration −4.0 Molar): 16% | Percent Growth (CCRF-CEM; Log10 Concentration −5.0 Molar): 14% | Percent Growth (CCRF-CEM; Log10 Concentration −6.0 Molar): 13% | Percent Growth (CCRF-CEM; Log10 Concentration −7.0 Molar): 31% | Percent Growth (CCRF-CEM; Log10 Concentration −8.0 Molar): 92% | GI50 (SK-MEL-2; Homo sapiens, SK-MEL-2): 0.0897 µM | CC50 (SK-MEL-2; Homo sapiens, SK-MEL-2, read-out: LC50): > 100 µM | TGI (SK-MEL-2; SK-MEL-2): 6.16E−7 Molar | Percent Growth (SK-MEL-2; SK-MEL-2, Log10 Concentration −4.0 Molar): −18% | Percent Growth (SK-MEL-2; SK-MEL-2, Log10 Concentration −5.0 Molar): −12% | Percent Growth (SK-MEL-2; SK-MEL-2, Log10 Concentration −6.0 Molar): −13% | Percent Growth (SK-MEL-2; SK-MEL-2, Log10 Concentration −7.0 Molar): 48% | Percent Growth (SK-MEL-2; SK-MEL-2, Log10 Concentration −8.0 Molar): 99% | TGI (HCT-116; HCT-116): 1.02E−6 Molar | Percent Growth (HCT-116; HCT-116, Log10 Concentration −4.0 Molar): −47% | Percent Growth (HCT-116; HCT-116, Log10 Concentration −5.0 Molar): −47% | Percent Growth (HCT-116; HCT-116, Log10 Concentration −7.0 Molar): 45% | Percent Growth (HCT-116; HCT-116, Log10 Concentration −8.0 Molar): 89% | GI50 (HCT-116; Homo sapiens, HCT-116): 0.0753 µM | CC50 (HCT-116; Homo sapiens, HCT-116, read-out: LC50): > 100 µM | Percent Growth (HS 578T; HS 578T, Log10 Concentration −4.0 Molar): 3% | Percent Growth (HS 578T; HS 578T, Log10 Concentration −5.0 Molar): −9% | Percent Growth (HS 578T; HS 578T, Log10 Concentration −6.0 Molar): −5% | Percent Growth (HS 578T; HS 578T, Log10 Concentration −7.0 Molar): 47% | Percent Growth (HS 578T; HS 578T, Log10 Concentration −8.0 Molar): 90% | CC50 (HS 578T; Homo sapiens, Hs-578T, read-out: LC50): > 100 µM | GI50 (HS 578T; Homo sapiens, HS 578T): 0.087 µM | CC50 (U251; Homo sapiens, U-251, read-out: LC50): > 100 µM | GI50 (U251; Homo sapiens, U-251, U251): 0.266 µM | TGI (U251; U251): 2.19E−5 Molar | Percent Growth (U251; U251, Log10 Concentration −4.0 Molar): −16% | Percent Growth (U251; U251, Log10 Concentration −5.0 Molar): 8% | Percent Growth (U251; U251, Log10 Concentration −6.0 Molar): 15% | Percent Growth (U251; U251, Log10 Concentration −7.0 Molar): 76% | Percent Growth (U251; U251, Log10 Concentration −8.0 Molar): 97% | GI50 (MCF7; Homo sapiens, MCF7): 0.12 µM | CC50 (MCF7; Homo sapiens, MCF7, read-out: LC50): > 100 µM | TGI (MCF7; MCF7): >1.00E−4 Molar | Percent Growth (MCF7; MCF7, Log10 Concentration −4.0 Molar): 7% | Percent Growth (MCF7; MCF7, Log10 Concentration −5.0 Molar): 10% | Percent Growth (MCF7; MCF7, Log10 Concentration −6.0 Molar): 16% | Percent Growth (MCF7; MCF7, Log10 Concentration −7.0 Molar): 53% | Percent Growth (MCF7; MCF7, Log10 Concentration −8.0 Molar): 92% | GI50 (NCI-H460; Homo sapiens, NCI-H460): 0.184 µM | CC50 (NCI-H460; Homo sapiens, NCI-H460, read-out: LC50): > 100 µM | TGI (NCI-H460; NCI-H460): 7.44E−7 Molar | Percent Growth (NCI-H460; NCI-H460, Log10 Concentration −4.0 Molar): −24% | Percent Growth (NCI-H460; NCI-H460, Log10 Concentration −5.0 Molar): −10% | Percent Growth (NCI-H460; NCI-H460, Log10 Concentration −6.0 Molar): −11% | Percent Growth (NCI-H460; NCI-H460, Log10 Concentration −7.0 Molar): 72% | Percent Growth (NCI-H460; NCI-H460, Log10 Concentration −8.0 Molar): 95% | GI50 (OVCAR-5; Homo sapiens, OVCAR-5): 0.538 µM | CC50 (OVCAR-5; Homo sapiens, OVCAR-5, read-out: LC50): > 100 µM | TGI (OVCAR-5; OVCAR-5): >1.00E−4 Molar | Percent Growth (OVCAR-5; OVCAR-5, Log10 Concentration −4.0 Molar): 25% | Percent Growth (OVCAR-5; OVCAR-5, Log10 Concentration −5.0 Molar): 33% | Percent Growth (OVCAR-5; OVCAR-5, Log10 Concentration −6.0 Molar): 37% | Percent Growth (OVCAR-5; OVCAR-5, Log10 Concentration −7.0 Molar): 85% | Percent Growth (OVCAR-5; OVCAR-5, Log10 Concentration −8.0 Molar): 85% | GI50 (MALME-3M; Homo sapiens, Malme-3M): 0.229 µM | CC50 (MALME-3M; Homo sapiens, Malme-3M, read-out: LC50): > 100 µM | TGI (MALME-3M; MALME-3M): >1.00E−4 Molar | Percent Growth (MALME-3M; MALME-3M, Log10 Concentration −4.0 Molar): 49% | Percent Growth (MALME-3M; MALME-3M, Log10 Concentration −5.0 Molar): 40% | Percent Growth (MALME-3M; MALME-3M, Log10 Concentration −6.0 Molar): 31% | Percent Growth (MALME-3M; MALME-3M, Log10 Concentration −7.0 Molar): 61% | Percent Growth (MALME-3M; MALME-3M, Log10 Concentration −8.0 Molar): 87% | CC50 (K-562; Homo sapiens, K562, read-out: LC50): > 100 µM | GI50 (K-562; Homo sapiens, K562, K-562): 0.0403 µM | TGI (K-562; K-562): >1.00E−4 Molar | Percent Growth (K-562; K-562, Log10 Concentration −4.0 Molar): 9% | Percent Growth (K-562; K-562, Log10 Concentration −5.0 Molar): 9% | Percent Growth (K-562; K-562, Log10 Concentration −6.0 Molar): 11% | Percent Growth (K-562; K-562, Log10 Concentration −7.0 Molar): 20% | Percent Growth (K-562; K-562, Log10 Concentration −8.0 Molar): 96% | TGI (NCI/ADR-RES): 4.07E−7 Molar | GI50 (NCI/ADR-RES; Homo sapiens): 0.0562 µM | CC50 (NCI/ADR-RES; Homo sapiens, read-out: LC50): > 100 µM | Percent Growth (NCI/ADR-RES; Log10 Concentration −4.0 Molar): −20% | Percent Growth (NCI/ADR-RES; Log10 Concentration −5.0 Molar): −12% | Percent Growth (NCI/ADR-RES; Log10 Concentration −6.0 Molar): −22% | Percent Growth (NCI/ADR-RES; Log10 Concentration −7.0 Molar): 34% | Percent Growth (NCI/ADR-RES; Log10 Concentration −8.0 Molar): 98%
